Results reported in patent US20210161825A1, “CHLOROQUINE-BASED MATERIALS FOR THE TREATMENT OF DISEASES” (BOARD OF REGENTS OF THE UNIVERSITY OF NEBRASKA, priority 2018, published 2021).

What was measured:
[1] = Colon pharmacokinetics and distribution after single oral dose in colitis mice; assay type: in vivo; conditions: male, C57BL/6, mouse, single oral dose 30 mg/kg CQ equivalent, pCQ = total HCQ
Description: (§1) Male C57BL/6 mice (6 weeks old, 18-20 g) were obtained from Charles River Laboratories and used for all in vivo studies. All animal experiments were conducted according to the protocol approved by the University of Nebraska Medical Center Institutional Animal Care and Use Committee. C. rodentium was used to induce colitis in mice. Bacterial glycerol stock was streaked onto LB agar plates and the bacterial colonies were grown overnight at 37° C. A single colony was inoculated into 5 ml of 2% LB broth and incubated at 37° C., 280 rpm overnight to obtain a saturated primary culture. On the day of the experiment (Day 0), 2 ml of the primary culture was added into 300 ml of LB broth and the inoculum was placed on a shaker at 37° C. at 280 rpm for 6 hours. Bacterial optical density was measured at 600 nm. Bacteria were diluted with LB broth and delivered to mice (n=15) via oral gavage in a 100 μL volume containing 5×10^8 colony forming units (CFU). Healthy control group (n=5) was orally administered 100 μL of LB broth.
(§2) The pharmacokinetics and biodistribution of single dose pCQ was evaluated in a mouse model of IBD. Colitis was induced as described above and on day 14, mice were given a single dose of HCQ or pCQ in 200 μl of deionized water via oral gavage equivalent to 30 mg/kg HCQ. Blood was collected from the submandibular vein at 0.5, 1, 2, 4, 8, and 24 h post-administration. The animals were sacrificed, and organs harvested at 0.5, 2, 8, and 24 h post-administration and stored at −80° C. until further use. The mice were randomized to selected sampling times so that three blood samples and one terminal tissue collection were obtained from each.
(§3) Blood, tissue and fecal samples were processed by two methods to determine free HCQ and total HCQ. For the first method, HCQ was isolated by a simple extraction from the organs as described in Murry et al., J. Chrom. B., (2018) 1072, 320-327. The second method utilized base hydrolysis to release HCQ covalently bound to pCQ and subsequent HCQ extraction using solid phase extraction (SPE). Tissues and feces were homogenized in water prior to loading to the SPE cartridge. The calibration and quality control samples were separately prepared for HCQ and pCQ by spiking 10 μl of appropriate calibration stock of HCQ and pCQ, in 100 μl of blank biomatrix, and 10 μl of internal standard solution (1.0 μg/ml) added. For the study, 25 μl of blood and 100 μl of tissue homogenate were used. 400 μl of 1 M NaOH, 600 μl water and 100 μl methanol were added and the samples were incubated at 50° C. for 1 h to hydrolyze HCQ from the pCQ. […]
(§4) The pharmacokinetic parameters of HCQ and pCQ in blood and tissues were calculated using non-compartmental analysis with Phoenix WinNonlin 6.3 (Pharsight Corporation). […]

IL-6 = assay: Colon cytokine mRNA by RT-PCR, IL-6; assay type: in vivo, mouse; conditions: seven oral doses over 14 days; vs untreated
Description: (§5) Colitis was induced as stated above and mice were randomly assigned to healthy, HCQ, and pCQ treatment groups (n=5) and untreated group (n=8). Starting day 1, the mice received oral gavage of either HCQ or pCQ every other day (30 mg/kg HCQ equivalent in 200 μl sterile deionized water). Untreated and healthy controls were administered 200 μl sterile deionized water. On day 14, the mice were sacrificed and the colons were harvested. The colon was opened longitudinally, cleaned of fecal matter, and excised into two parts along the length, which were stored accordingly for determination of cytokine mRNA levels by RT-PCR and histological analysis.
(§6) Colon samples from the therapeutic study were stored in RNAlater™ (Thermo Fisher Scientific Inc.) at 4° C. for 48 hours to allow sufficient time for tissue penetration followed by removal of excess solution. The tissues were then stored at −80° C. until further processing. […] The extracted mRNA was quantified using Nanodrop Onec UV-Vis spectrophotometer (Thermo Fisher Scientific Inc.). […] A volume corresponding to 1 μg of RNA as determined by UV spectrometer was used for cDNA synthesis. […] Results obtained from the RT-PCR were analyzed by Ct method to determine the fold change in gene expression.

[2] = Blood pharmacokinetics after single oral dose in C. rodentium colitis mice; assay type: in vivo, mouse; conditions: for Cmax: pCQ = total (polymer-bound + hydrolyzed) HCQ
Description: as §1, §2
Blood, tissue and fecal samples were processed by two methods to determine free HCQ and total HCQ. For the first method, HCQ was isolated by a simple extraction from the organs as described in Murry et al., J. Chrom. B., (2018) 1072, 320-327. The second method utilized base hydrolysis to release HCQ covalently bound to pCQ and subsequent HCQ extraction using solid phase extraction (SPE). Tissues and feces were homogenized in water prior to loading to the SPE cartridge. The calibration and quality control samples were separately prepared for HCQ and pCQ by spiking 10 μl of appropriate calibration stock of HCQ and pCQ, in 100 μl of blank biomatrix, and 10 μl of internal standard solution (1.0 μg/ml) added. For the study, 25 μl of blood and 100 μl of tissue homogenate were used. 400 μl of 1 M NaOH, 600 μl water and 100 μl methanol were added and the samples were incubated at 50° C. for 1 h to hydrolyze HCQ from the pCQ. Subsequently, 400 μ12% formic acid was added and the samples were vortexed for 30 s and centrifuged at 1301×g for 10 min. The SPE was carried out using Oasis HLB 3cc, 60 mg extraction Cartridge (Waters, Inc). Cartridges were pre-conditioned with 1 ml acetonitrile followed by 1 ml water. Samples were loaded to the cartridges and washed with 2 ml of aqueous 15% methanol and dried at high vacuum for 15 min. Analytes were eluted with 2 ml of acetonitrile. The eluents were collected in glass tubes and dried under nitrogen in water bath at 50° C. The dry residues were reconstituted in 400 μ1 0.1% formic acid:methanol mixture (60:40) and centrifuged at 13000×g and 10 μl supernatant was injected into the HPLC. The LC-MS/MS conditions were as previously described. (Murry et al., J. Chrom. B., (2018) 1072, 320-327.) The assay was linear over the range of 1 to 2000 ng/mL.
The pharmacokinetic parameters of HCQ and pCQ in blood and tissues were calculated using non-compartmental analysis with Phoenix WinNonlin 6.3 (Pharsight Corporation). The maximum concentration (Cmax) and time to Cmax (Tmax) were obtained from the visual inspection of the concentration-time plot. […]

IL-2 = assay: Colon cytokine mRNA by RT-PCR, IL-2; assay type: in vivo, mouse; conditions: seven oral doses over 14 days; vs untreated
Description: as §5, §6

[3] = Liver pharmacokinetics and distribution after single oral dose in colitis mice; assay type: in vivo; conditions: male, C57BL/6, mouse, single oral dose 30 mg/kg CQ equivalent, pCQ = total HCQ
Description: as §1, §2, §3, §4

CD68 positive cells = assay: Macrophage infiltration in the colon (CD68 staining); assay type: in vivo, mouse; conditions: oral gavage every other day, 30 mg/kg HCQ equivalent, day 14; vs untreated
Description: as §5

[4] = test system: mice with C. rodentium colitis; assay: Therapeutic efficacy, colon histology (H&E) in C. rodentium colitis; assay type: in vivo, mouse; conditions: oral gavage every other day, 30 mg/kg HCQ equivalent, vs untreated
Description: Male C57BL/6 mice (6 weeks old, 18-20 g) were obtained from Charles River Laboratories and used for all in vivo studies. All animal experiments were conducted according to the protocol approved by the University of Nebraska Medical Center Institutional Animal Care and Use Committee. C. rodentium was used to induce colitis in mice. Bacterial glycerol stock was streaked onto LB agar plates and the bacterial colonies were grown overnight at 37° C. A single colony was inoculated into 5 ml of 2% LB broth and incubated at 37° C., 280 rpm overnight to obtain a saturated primary culture. […] Bacterial optical density was measured at 600 nm. […]
The longitudinally opened colons were rolled into a Swiss roll from distal to proximal end. […] The stained sections were evaluated by a pathologist without the knowledge of the identity of the samples using a light microscope. […] Crypt heights were measured using ImageJ software, with 10 measurements taken in distal colons of each mouse. Only well-oriented and intact crypts were measured. […] CC3 positive cells in the entire colon roll were counted at 20× magnification. Results were expressed as mean CC3 positive cells per entire colon roll. CD68 positive cells were counted in five randomly chosen areas in the colon roll at high power field (HPF). Results were expressed as mean of CD68 positive cells per HPF.

[5] = male, C57BL/6, mouse, whole blood, blood, single oral dose 30 mg/kg HCQ equivalent, colitis mice, pCQ = total HCQ

## CCN(CCO)CCCC(C)Nc1ccnc2cc(Cl)ccc12 (centres unmarked) [HCQ, Hydroxychloroquine]
[1]
  AUC(0-inf): 209 µg·h/mL
  AUC(0-t): 166 µg·h/mL
  Cmax: 10300 ng/mL
  Tmax: 8 h
IL-6
  colon IL-6 expression (mRNA): statistically significant reduction
[2]; blood, single oral dose 30 mg/kg HCQ equivalent, colitis mice, 30 mg/kg
  Cmax: 2,343 ± 46 ng/ml
[2]; blood, single oral dose 30 mg/kg HCQ equivalent, colitis mice, pCQ = total HCQ, 30 mg/kg
  AUC0-∞: 28,182 ± 1476^ h × ng/ml
[2]; male, C57BL/6, mouse, whole blood, 30 mg/kg, oral vs i.v., read-out: absolute bioavailability (oral to i.v.)
  bioavailability: 80%
[2]; male, C57BL/6, mouse, whole blood, po, 30 mg/kg, blood, single oral dose 30 mg/kg HCQ equivalent, colitis mice, read-out: Cmax
  Cmax: 2340 ng/mL
[2]; male, C57BL/6, mouse, whole blood, po, 30 mg/kg, blood, single oral dose 30 mg/kg HCQ equivalent, colitis mice, pCQ = total HCQ
  AUC(0-inf): 28.2 µg·h/mL
[2]; [5]
  AUC(0-t): 26.4 µg·h/mL
  CL/F: 18.3 mL/min/kg
  MRT: 6.8 ± 0.6 h
  Tmax: 3.3 ± 1.2 h
  half-life: 5.6 ± 1.9 h
IL-2
  colon IL-2 expression (mRNA): upregulated
[3]
  AUC(0-inf): 176 µg·h/mL
  AUC(0-t): 168 µg·h/mL
  Cmax: 12800 ng/mL
  Tmax: 2 h
CD68 positive cells
  macrophage infiltration (CD68 positive cells per HPF): statistically significant reduction
[4]; day 14
  colon crypt length: significantly reduced
[4]; sacrifice day 14
  colon inflammation and epithelial injury (H&E): reduced the colon inflammation and eased the epithelial injury
